13 compounds from patent US9057727B2, “Screening methods using G-protein coupled receptors and related compositions” (The General Hospital Corporation, priority 2007, dated 2015) can be followed below.

Read-outs that look alike come from different tables or passages of the source. Peptide text beside a SMILES is read from it.

Assay [1] concerns the target T1, human PTHR, G protein-coupled conformation (RG) (Homo sapiens, UniProt Q03431).
T1 construct: expressed in transfected cells; host or cells: COS-7, transient (Fugene-6); membranes
T1 sequence (Q03431 27-593): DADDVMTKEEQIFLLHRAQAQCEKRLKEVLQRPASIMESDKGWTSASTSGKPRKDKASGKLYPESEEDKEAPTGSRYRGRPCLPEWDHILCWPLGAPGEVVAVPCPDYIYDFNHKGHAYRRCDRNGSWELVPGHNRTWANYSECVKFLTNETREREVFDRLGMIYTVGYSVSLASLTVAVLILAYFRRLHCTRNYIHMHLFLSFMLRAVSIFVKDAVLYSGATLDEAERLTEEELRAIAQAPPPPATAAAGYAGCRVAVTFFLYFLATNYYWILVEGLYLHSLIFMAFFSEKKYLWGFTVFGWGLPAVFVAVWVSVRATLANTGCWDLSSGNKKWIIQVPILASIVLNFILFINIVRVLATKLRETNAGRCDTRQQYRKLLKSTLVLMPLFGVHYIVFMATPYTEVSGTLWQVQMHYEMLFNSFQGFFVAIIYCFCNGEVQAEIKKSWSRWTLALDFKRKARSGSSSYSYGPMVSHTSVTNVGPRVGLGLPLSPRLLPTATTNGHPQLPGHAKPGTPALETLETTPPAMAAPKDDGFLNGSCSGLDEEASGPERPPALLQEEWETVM
Put plainly: Competition binding to RG conformation of hPTHR (COS-7 membranes, GαsND, 125I-[Aib1,3,M]PTH(1-15) tracer).

In assay [2] the target is T2, human PTHR, G protein-uncoupled conformation (R^0) (Homo sapiens, UniProt Q03431).
T2 construct: expressed in transfected cells; host or cells: COS-7, transient (Fugene-6)
T2 sequence (Q03431 27-593): T1 sequence (Q03431 27-593)
Put plainly: Competition binding to R0 conformation of hPTHR (COS-7 membranes, GTPγS, 125I-PTH(1-34) tracer). An outline of the steps: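 Membranes from hPTHR-transfected COS-7 cells (20-100 μg/mL protein) incubated 90 min with radioligand (~150,000 cpm/ml) and unlabeled ligands, then filtered. Specific binding expressed as % of binding without competitor.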

Another assay relates to SaOS cells. Put plainly: cAMP production in SaOS cells, dose-response. Type of assay: cell-based. (cAMP levels reflect the balance of adenylyl cyclase and phosphodiesterase activity.)
In assay [3] the test system is MC3T3-E1 cells. Put plainly: cAMP in MC3T3-E1 cells, dose-response. In kind it is cell-based. The protocol: In the 1-30 scaffold, Gly, Ser, Leu, Asn, Gln, Trp, Glu, and Lys were substituted at position 29; Gly, Ser, Leu, Asn, Asp, Trp, and Lys were substituted at position 30; and Ser, Leu, Asn, Val, Trp, Glu, and Lys were substituted at position 31. […] These peptides were tested for cAMP activity in MC3T3-E1 cells.

Assay [4] concerns LLCPK1-B64 cells or SaOS-2 cells. Put plainly: cAMP screen of substituted PTHrP(1-28) analogs (% parent). Type of assay: cell-based. Particulars: parent PTHrP(1-28)NH. Put shortly: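 LLCPK1-B64 or SaOS-2 cells exposed to peptide analogs at 3×10^−9M with IBMX for 30 minutes at room temperature, then cAMP measured. Each analog's response expressed as percentage of that for parent PTHrP(1-28).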

The subject of assay [5] is MC3T3-E1 cells. Put plainly: cAMP screen of EALK-PTHrP(1-31)/(1-34) variants (% parent). In kind it is cell-based. From the text:
FIGS. 32A and 32B are graphs showing the effects of amino acid substitutions in the 29-31 region of EALK-PTHrP(1-31) (SEQ ID NO:94) (FIG. 32A) and the 29-33 region of EALK-PTHrP(1-34) (SEQ ID NO:112) (FIG. 32B) on induction of cAMP activity in MC3T3-E1 cells. Substitutions at position 29 for EALK-PTHrP(1-31) were G^29 to S^29 (SEQ ID NO:95-96), L^29 (SEQ ID NO:176), and N^29 to K^29 (SEQ ID NO:97-101). Substitutions at position 30 for EALK-PTHrP(1-31) were G^30 to D^30 (SEQ ID NO:102-106), W^30 (SEQ ID NO:177), and K^30 (SEQ ID NO:107). […] Substitutions for EALK-PTHrP(1-34) A^30 to A^33 (SEQ ID NO:113-116) and EALK-PTHrP(1-28)/PTH(29-34) (SEQ ID NO:117).
To optimize the activity of the EALK-PTHrP peptides, we generated EALK-PTHrP([…]) and PTHrP(1-34) variants with substitutions in the 29-33 region. In the 1-30 scaffold, Gly, Ser, Leu, Asn, Gln, Trp, Glu, and Lys were substituted at position 29; Gly, Ser, Leu, Asn, Asp, Trp, and Lys were substituted at position 30; and Ser, Leu, Asn, Val, Trp, Glu, and Lys were substituted at position 31. […] A predicted advantage of these longer-length peptides, relative to the PTHrP(1-30) scaffold, is that they will have longer a longer half-life in circulation due to slower clearance. The C-terminal substitutions were thus designed to provide the added chain length, but to avoid increasing R^0 binding affinity, which occurs when the native PTHrP(29-34) region (SEQ ID NO:186) is installed. These peptides were tested for cAMP activity in MC3T3-E1 cells.

The mark [6] stands for this setting: Table 3, read-out: dose-response cAMP in MC3T3-E1 (EC50).
Where [7] appears, read: Table 3, read-out: dose-response cAMP in SaOS (EC50).
Where [8] appears, read: parent E18,A22,L25,K26-PTHrP(1-31)OH.

What is called IC50 is the concentration needed to halve the response being measured. As a reminder, the EC50 is the concentration at which the effect is half-maximal.

With `CC[C@H](C)[C@H](NC(=O)[C@H](CC(C)C)NC(=O)[C@H](CCCCN)NC(=O)[C@H](CC(C)C)NC(=O)[C@H](CC(C)C)NC(=O)[C@H](Cc1ccccc1)NC(=O)[C@H](C)NC(=O)[C@H](CCCNC(=N)N)NC(=O)[C@H](CCCNC(=N)N)NC(=O)[C@H](CCCNC(=N)N)NC(=O)[C@H](C)NC(=O)[C@H](CC(=O)O)NC(=O)[C@H](CCC(N)=O)NC(=O)[C@@H](NC(=O)[C@H](CO)NC(=O)[C@H](CCCCN)NC(=O)CNC(=O)[C@H](CCCCN)NC(=O)[C@H](CC(=O)O)NC(=O)[C@H](Cc1c[nH]cn1)NC(=O)[C@H](CC(C)C)NC(=O)[C@H](CC(C)C)NC(=O)[C@H](CCC(N)=O)NC(=O)[C@H](Cc1c[nH]cn1)NC(=O)[C@H](CCC(=O)O)NC(=O)[C@H](CO)NC(=O)[C@@H](NC(=O)[C@H](C)N)C(C)C)[C@@H](C)CC)C(=O)N[C@@H](C)C(=O)N[C@@H](CCC(=O)O)C(N)=O` [A18, 22, L25, K26-PTHrP(1-30)NH, A18,22,L25,K26-PTHrP(1-30)], the IC50 worked out at 0.05 nM in assay [1] (Table 2, read-out: RG binding affinity hPTHR IC50) and 144000 pM in assay [2] (Table 2, read-out: R^0 binding affinity hPTHR IC50). For the same compound, the EC50 in the assay with SaOS cells (Table 2, read-out: SaOS camp EC50) turned out to be 8 pM; with MC3T3-E1 cells [3] (Table 2, read-out: MC3T3-E1 cAMP EC50), 67 pM; in the assay with MC3T3-E1 cells [3] (setting [6]) it was 67 pM.
Turning to `CC[C@H](C)[C@H](NC(=O)[C@H](CC(C)C)NC(=O)[C@H](CCCCN)NC(=O)[C@H](CC(C)C)NC(=O)[C@H](CC(C)C)NC(=O)[C@H](Cc1ccccc1)NC(=O)[C@H](CO)NC(=O)[C@H](CCCNC(=N)N)NC(=O)[C@H](CCCNC(=N)N)NC(=O)[C@H](CCCNC(=N)N)NC(=O)[C@H](C)NC(=O)[C@H](CC(=O)O)NC(=O)[C@H](CCC(N)=O)NC(=O)[C@@H](NC(=O)[C@H](CO)NC(=O)[C@H](CCCCN)NC(=O)CNC(=O)[C@H](CCCCN)NC(=O)[C@H](CC(=O)O)NC(=O)[C@H](Cc1c[nH]cn1)NC(=O)[C@H](CC(C)C)NC(=O)[C@H](CC(C)C)NC(=O)[C@H](CCC(N)=O)NC(=O)[C@H](Cc1c[nH]cn1)NC(=O)[C@H](CCC(=O)O)NC(=O)[C@H](CO)NC(=O)[C@@H](NC(=O)[C@H](C)N)C(C)C)[C@@H](C)CC)C(N)=O` [A18, S22, L25, K26-PTHrP(1-28)NH, A18,S22,L25,K26-PTHrP(1-28)] (H-AVSEHQLLHDKGKSIQDARRRSFLLKLI-NH2; N-terminus assumed), the IC50 in assay [1] (Table 3, read-out: dose-response human PIR RG (IC50 nM)) was found to be 0.1 nM. In addition, the 50% effective concentration (EC50) in the assay on SaOS cells (setting [7]) came to 9 pM. The “screen cAMP (% parent)” value in assay [4] came out at 367 % parent.
Turning to `CC[C@H](C)[C@H](NC(=O)[C@H](CC(C)C)NC(=O)[C@H](CCCCN)NC(=O)[C@H](CC(C)C)NC(=O)[C@H](CC(C)C)NC(=O)[C@H](Cc1ccccc1)NC(=O)[C@H](CO)NC(=O)[C@H](CCCNC(=N)N)NC(=O)[C@H](CCCNC(=N)N)NC(=O)[C@H](CCCNC(=N)N)NC(=O)[C@H](CCC(=O)O)NC(=O)[C@H](CC(=O)O)NC(=O)[C@H](CCC(N)=O)NC(=O)[C@@H](NC(=O)[C@H](CO)NC(=O)[C@H](CCCCN)NC(=O)CNC(=O)[C@H](CCCCN)NC(=O)[C@H](CC(=O)O)NC(=O)[C@H](Cc1c[nH]cn1)NC(=O)[C@H](CC(C)C)NC(=O)[C@H](CC(C)C)NC(=O)[C@H](CCC(N)=O)NC(=O)[C@H](Cc1c[nH]cn1)NC(=O)[C@H](CCC(=O)O)NC(=O)[C@H](CO)NC(=O)[C@@H](NC(=O)[C@H](C)N)C(C)C)[C@@H](C)CC)C(N)=O` [E18, S22, L25, K26-PTHrP(1-28)NH, E18,S22,L25,K26-PTHrP(1-28)] (H-AVSEHQLLHDKGKSIQDERRRSFLLKLI-NH2; N-terminus assumed), the EC50 with SaOS cells (setting [7]) is 55 pM. Also, the “screen cAMP (% parent)” value in assay [4] stood at 337 % parent.
“AVSEHQLLHDKGKSIQDARRRAFLKKLI [A18, 22, K25, 26-PTHrP(1-28)NH, A18,22,K25,26-PTHrP(1-28)]”: in the assay with SaOS cells (setting [7]), the EC50 is 12 pM. Also, in assay [4], the “screen cAMP (% parent)” value turned out to be 349 % parent.
With “AVSEHQLLHDKGKSIQDARRRSFLHKLI [A18, S22, K26-PTHrP(1-28)NH, A18,S22,K26-PTHrP(1-28)]”, in assay [1] (parent PTHrP(1-28)NH), the “screen human PIR RG (% parent)” value came out at 175 % parent. Moreover, the “screen human PIR R0 (% parent)” value in assay [2] (parent PTHrP(1-28)NH) stood at 155 % parent. The concentration giving a half-maximal response (EC50) with SaOS cells (setting [7]) was found to be 38 pM. The “screen cAMP (% parent)” value in assay [4] came out at 372 % parent.
For the compound “AVSEHQLLHDKGKSIQDARRRSFLKKLI [A18, S22, K25, 26-PTHrP(1-28)NH, A18,S22,K25,26-PTHrP(1-28)]”, in the assay on SaOS cells (setting [7]), the EC50 was found to be 15 pM. Further, the “screen cAMP (% parent)” value in assay [4] came to 316 % parent.
For “AVSEHQLLHDKGKSIQDERRRAFLKKLI [E18, A22, K25, 26-PTHrP(1-28)NH, E18,A22,K25,26-PTHrP(1-28)]” the same measures were 54 pM and 323 % parent.
For the compound “AVSEHQLLHDKGKSIQDERRRAFLLKLIAKI [E18, A22, L25, K26, K30-PTHrP(1-31)OH, E18,A22,L25,K26,K30-PTHrP(1-31)]”, in the assay with MC3T3-E1 cells [5] (setting [8]), the “screen cAMP (% parent)” value came out at 245 % parent. In addition, the concentration giving a half-maximal response (EC50) in the assay on MC3T3-E1 cells [3] (setting [6]) was determined as 200 pM.
The corresponding values for “AVSEHQLLHDKGKSIQDERRRAFLLKLIASI [E18, A22, L25, K26, S30-PTHrP(1-31)OH, E18,A22,L25,K26,S30-PTHrP(1-31)]” are 331 % parent and 120 pM.
For “AVSEHQLLHDKGKSIQDERRRAFLLKLIKEI [E18, A22, L25, K26, K29-PTHrP(1-31)OH, E18,A22,L25,K26,K29-PTHrP(1-31)]” the same measures were 227 % parent and 280 pM.
For the compound “AVSEHQLLHDKGKSIQDERRRAFLLKLIQDVHNF [E18,A22,L25,K26,Q29,D30,V31,N33,F34-PTHrP(1-34)]”, the “screen cAMP (% parent)” value with MC3T3-E1 cells [5] (parent E18,A22,L25,K26-PTHrP(1-34)OH) is on record as 204 % parent. In the assay on MC3T3-E1 cells [3] (setting [6]), the EC50 stood at 560 pM.
For the compound “AVSEHQLLHDKGKSIQDERRRAFLLKLIQEI [E18, A22, L25, K26, Q29-PTHrP(1-31)OH, E18,A22,L25,K26,Q29-PTHrP(1-31)]”, in the assay with MC3T3-E1 cells [5] (setting [8]), the “screen cAMP (% parent)” value came to 226 % parent. In addition, the EC50 in the assay with MC3T3-E1 cells [3] (setting [6]) was determined as 590 pM.
The corresponding values for “AVSEHQLLHDKGKSIQDERRRAFLLKLISEI [E18, A22, L25, K26, S29-PTHrP(1-31)OH, E18,A22,L25,K26,S29-PTHrP(1-31)]” are 209 % parent and 410 pM.
